{
  "source": "patent US20190195897A1",
  "about": "“GLYCOSYLATED METABOLITES” (UNIVERSITEIT LEIDEN, priority 2015, published 2019)",
  "key": {"type 1 GD patients": {"tested_on": "type 1 GD patients", "experiment": "Plasma GlcChol in treated type 1 GD patients", "type": "in vivo, human", "details": "plasma specimens of type 1 GD patients", "protocol": "FIG. 6C: Reduction in plasma GlcChol following Eliglustat treatment.\nGlcChol levels in plasma of untreated symptomatic type 1 GD patients was determined as well as in NPC patients, carriers and healthy controls. […] The abnormalities are more pronounced when plasma GlcChol is related to Chol (FIG. 6B).\nFor quantitative analysis of GlcChol in samples of plasma, we developed a LC-MS/MS method using the MRM mode of the transitions mentioned above. Firstly, GlcChol was extracted from plasma from a healthy individual according the method of Bligh and Dyer (28) with a few modifications. 20 μL of plasma was pipetted in an Eppendorf tube (2 mL) and 20 μL of an internal standard solution, containing 0.1 pmol/μL of ^13C6-β-GlcChol in methanol, was added, followed by addition of 280 μL methanol and 150 μL of chloroform. After brief mixing, the sample was left at room temperature for 30 min, mixed occasionally and centrifuged for 10 min at 15700×g to spin down precipitated protein. The supernatant was transferred to an Eppendorf tube and 150 μL chloroform and 250 μL water were added to induce separation of phases. After centrifugation (5 min at 15700×g) the lower, hydrophobic phase was transferred to a clean Eppendorf tube and the upper phase was washed. by addition of 300 μL of chloroform. Lower phases were pooled and taken to dryness at 35° C. under a nitrogen stream. […]"}, "RAW 267 cells": {"tested_on": "RAW 267 cells", "experiment": "GlcChol in RAW 267 cells exposed to U18666A", "type": "cell-based", "details": "for increase of GlcChol in U18666A exposed cells: RAW 267 cells with U18666A, added agent present", "protocol": "FIG. 5C: GlcChol (pmol/mg protein) in RAW 267 cells incubated with indicated concentration U18666A for 1 day in absence and presence of conduri.tol B-epoxide (CBE) inhibiting GBA.\nFIG. 5D: GlcChol (pmol/mg protein) in RAW 267 cells incubated with 10 uM U18666A for 1 day and in subsequent absence and presence of 1 mM β-methylcyclodextrin (β-mCD) reducing intralysosomal cholesterol."}, "COS7 cells": {"tested_on": "COS7 cells", "experiment": "GlcChol in cultured COS7 cells incubated with inhibitors of GBA2 and GBA", "type": "cell-based", "details": "for increased cellular GlcChol level in cells with overexpressed GCS: COS7 cells with overexpressed GCS, 2 days with inhibitor", "protocol": "FIG. 4A: GlcChol (nmol/g protein) in COS cells without overexpression of enzymes (control), overexpressed GBA2, GCS and both (GBA2+GCS). Cells were incubated for 2 days with indicated inhibitors of GBA2 (AMP-DNM) and GBA (CBE).\nThe GlcChol content of cultured COS7 cells and factors influencing this was determined. First the impact of overexpressed GBA2 and GCS was studied.\nCOS-7 cells were cultured in Iscove's modified Dulbecco's medium (Life Technologies, Carlsbad, Calif., USA) supplemented with 5% fetal bovine serum (FBS; Bodinco, Alkmaar, The Netherlands) and in the presence of penicillin/streptomycin Liffe Technologies, Carlsbad, Calif., USA under 5% CO2 at 37° C. […] After 72 h, the medium was removed, cells were washed trice with ice-cold PBS and harvested by scraping in 25 mM potassium-phosphate buffer, pH 6.5.\nCOS-7 cells overexpressing GBA2 and/or GCS were homogenized by sonication on ice. Prior to extraction, 2 pmol of ^13C-labelled GlcChol in methanol (used as an internal standard) was added to 180 μL of homogenate. Next, lipids were extracted according to the method of Bligh and Dyer by addition of methanol, chloroform and water (1:1:0.9, v/v/v) and the lower phase was taken to dryness under a stream of nitrogen. Isolated Is lipids were purified by water/butanol extraction (1:1, v/v) and 8-GlcChol was analyzed by LC-MS as described before."}, "type 1 GD mice": {"tested_on": "type 1 GD mice", "experiment": "Treatment of mice with induced Gaucher disease with GCS inhibitor; plasma GlcCer and GlcChol", "type": "in vivo", "details": "treated with GCS inhibitor", "description": "FIG. 2E: Plasma GlcChol (nM) in normal, type 1 GD mice untreated and treated with GENZ 112638.\nAs shown in FIG. 2A and FIG. 2B, the GlcChol concentration was markedly lower in tissues of GBA2-deficient animals, especially in thymus. In contrast, in the GBA-deficient LIMP-2 KO mice no reduction in GlcChol, but rather a small increase in levels was observed (FIG. 2A, 2B). An increase in GlcChol was also observed in liver of mice with an induced GBA deficiency in the white blood cell lineage (FIG. 2C). Efficient correction of GBA deficiency by gene therapy led to a concomitant reduction of GlcChol (FIG. 2C).\nThe following mice were used for investigation: GD1 mice in which GBA-deficiency was induced (31, 32); mice with spontaneous Niemann Pick Type C (33) and Npc1−/− mice (34); LIMP2−/− mice (35), and GBA2 −/− mice (22). Animals were sacrificed and tissue were immediately frozen and stored at −80° C.\nFor quantitative analysis of GlcChol in samples of plasma, we developed a LC-MS/MS method using the MRM mode of the transitions mentioned above. Firstly, GlcChol was extracted from plasma from a healthy individual according the method of Bligh and Dyer (28) with a few modifications. […]"}},
  "data": [
    {"compound": "CCCCCCCC(=O)N[C@H](CN1CCCC1)[C@H](O)c1ccc2c(c1)OCCO2", "note": "[Eliglustat]", "values": [
      {"measurement": "plasma GlcChol following treatment", "setting": "type 1 GD patients", "result": "prominent reduction"}
    ]},
    {"compound": "β-methylcyclodextrin [B-methyl-cyclodextrin]", "values": [
      {"measurement": "increase of GlcChol in U18666A exposed cells", "setting": "RAW 267 cells", "result": "prevented"}
    ]},
    {"compound": "OC[C@@H]1[C@@H](O)[C@H](O)[C@@H](O)CN1CCCCCOCC12CC3CC(CC(C3)C1)C2", "note": "[AMP-DNM, N-(5-adamantane-1-yl-methoxy-pentyl)-deoxynojirimycin]", "values": [
      {"measurement": "increased cellular GlcChol level in cells with overexpressed GCS", "setting": "COS7 cells", "result": "the elevation in GlcChol was prevented"},
      {"measurement": "cellular GlcChol", "setting": "COS7 cells; COS7 cells, low nanomolar inhibitor, 2 days", "result": "reduced cellular GlcChol"}
    ]},
    {"compound": "CCN(CC)CCO[C@H]1CC[C@@]2(C)C(=CC[C@@H]3[C@@H]2CC[C@]2(C)C(=O)CC[C@@H]32)C1", "note": "[U18666A]", "values": [
      {"measurement": "GlcChol in cells on induction of lysosomal cholesterol accumulation", "setting": "RAW 267 cells; RAW 267 cells, 1 day", "result": "rapid increase"}
    ]},
    {"compound": "CCCCCCCC(=O)N[C@H](CN1CCCC1)[C@H](O)c1ccc2c(c1)OCCO2", "note": "[GENZ 112638]", "values": [
      {"measurement": "elevated plasma GlcChol", "setting": "type 1 GD mice", "result": "minor, not statistically significant, reduction"},
      {"measurement": "plasma GlcCer", "setting": "type 1 GD mice", "result": "partial reduction"}
    ]},
    {"compound": "CCCCN1C[C@H](O)[C@@H](O)[C@H](O)[C@H]1CO", "note": "[Zavesca]", "values": [
      {"measurement": "plasma GlcChol following treatment", "setting": "type 1 GD patients", "result": "not"}
    ]},
    {"compound": "O[C@H]1[C@H](O)[C@@H](O)[C@@H]2O[C@@H]2[C@@H]1O", "note": "(racemic) [CBE, Conduritol B epoxide]", "values": [
      {"measurement": "increase of GlcChol in U18666A exposed cells", "setting": "RAW 267 cells", "result": "prevented completely"},
      {"measurement": "increased cellular GlcChol level in cells with overexpressed GCS", "setting": "COS7 cells", "result": "did hardly diminish"}
    ]}
  ]
}
